Measured values from PMC11432087, “Hydrogen Sulfide-Releasing Carbonic Anhydrase Inhibitors Effectively Suppress Cancer Cell Growth” (International Journal of Molecular Sciences, 2024).
Where two headings read alike, the source gives them in different places.

How the values were obtained:
hCA I = conditions: stopped-flow CO2 hydrase assay, mean of three assays; cited from earlier work
hCA II = conditions: stopped-flow CO2 hydrase assay, mean of three assays; cited from earlier work
hCA IV = conditions: stopped-flow CO2 hydrase assay, mean of three assays; cited from earlier work
hCA IX [1] = conditions: stopped-flow CO2 hydrase assay, mean of three assays; cited from earlier work
hCA XII [2] = conditions: stopped-flow CO2 hydrase assay, mean of three assays; cited from earlier work
A549 [3] = experiment: MTT antiproliferative assay, A549; assay type: cell-based; conditions: Homo sapiens, normoxic conditions, 72 h
Method: The human triple-negative breast cancer cell line (MDA-MB-231), colon cancer cell line (HCT-116), and lung cancer cell line (A549) used in this study were obtained from the American Type Culture Collection (ATCC). These cell lines were cultured as monolayers in Dulbecco’s Modified Eagle’s Medium (DMEM) supplemented with 10% FBS, 2 mM l-glutamine, 100 U/mL penicillin, and 100 µg/mL streptomycin sulfate. […] The cells were sub-cultured using trypsin/EDTA solution, counted with a hemocytometer, and plated on 96-well plates (5000 cells/well), allowing them to form a semi-confluent monolayer overnight. […]. DMSO (100 µL/well) was then added to dissolve the formazan crystals with shaking for 10 min, after which the absorb absorbance was read at 590 nm against no-cell blanks using a FLuo Star Optima microplate reader (BMG technologies, Ortenberg, Germany). Cell proliferation was calculated by comparing the OD values of the DMSO control wells with those of the samples, represented as % proliferation relative to the control.

hCA IX [4] = experiment: Stopped-flow CO2 hydrase inhibition assay, hCA IX; assay type: biochemical, human; conditions: ratio of KIs
Method: (§1) An Applied Photophysics stopped-flow instrument (Applied Photophysics Ltd, Leatherhead, UK) was used for assaying the CA-catalyzed CO2 hydration activity. Phenol red (at a concentration of 0.2 mM) was used as an indicator, working at the absorbance maximum of 557 nm, with 20 mM Hepes (pH 7.5) as a buffer and 20 mM Na2SO4 for maintaining constant the ionic strength, following the initial rates of the CA-catalyzed CO2 hydration reaction for a period of 10−100 s. The CO2 concentrations ranged from 1.7 to 17 mM for the determination of the kinetic parameters and inhibition constants. For each inhibitor, at least six traces of the initial 5−10% of the reaction were used for determining the initial velocity. The uncatalyzed rates were determined in the same manner and subtracted from the total observed rates. Stock solutions of inhibitor (0.1 mM) were prepared in distilled−deionized water and dilutions up to 0.01 nM were made thereafter with the assay buffer. Inhibitor and enzyme solutions were preincubated together for 15 min at room temperature before the assay to allow for the formation of the E−I complex. The inhibition constants were obtained by nonlinear least-squares methods using Prism 7 (GraphPad Software, La Jolla, CA, USA) and the Cheng−Prusoff equation and represent the mean of at least three different determinations. The enzyme concentrations were in the range of 3–11 nM. All hCA isoforms were recombinant ones obtained in-house.

hCA XII [5] = experiment: Stopped-flow CO2 hydrase inhibition assay, hCA XII; assay type: biochemical, human; conditions: ratio of KIs
Method: as §1

MDA-MB-231 = experiment: MTT antiproliferative assay, MDA-MB-231; assay type: cell-based; conditions: Homo sapiens, normoxic conditions, 72 h
Method: (§2) These cell lines were cultured as monolayers in Dulbecco’s Modified Eagle’s Medium (DMEM) supplemented with 10% FBS, 2 mM l-glutamine, 100 U/mL penicillin, and 100 µg/mL streptomycin sulfate. […] The cells were sub-cultured using trypsin/EDTA solution, counted with a hemocytometer, and plated on 96-well plates (5000 cells/well), allowing them to form a semi-confluent monolayer overnight. […] DMSO (100 µL/well) was then added to dissolve the formazan crystals with shaking for 10 min, after which the absorb absorbance was read at 590 nm against no-cell blanks using a FLuo Star Optima microplate reader (BMG technologies, Ortenberg, Germany). Cell proliferation was calculated by comparing the OD values of the DMSO control wells with those of the samples, represented as % proliferation relative to the control.

HCT-116 [6] = experiment: MTT antiproliferative assay, HCT-116 (normoxia and CoCl2-induced hypoxia); assay type: cell-based, human; conditions: HCT-116; for IC50: Homo sapiens, MTT, 72 h
Method: as §2

HCT-116 [7] = experiment: Cell cycle analysis by DNA flow cytometry, HCT-116; assay type: cell-based, human; conditions: HCT-116, 24 h at IC50 concentration
Method: (§3) Following treatment, cells were washed twice with ice-cold phosphate-buffered saline (PBS). Subsequently, the treated cells were harvested through centrifugation, fixed in ice-cold 70% (v/v) ethanol, washed with PBS, re-suspended in 100 μg/mL RNase, stained with 40 μg/mL propidium iodide (PI), and subjected to flow cytometry analysis using FACS Calibur (Becton Dickinson, Franklin Lakes, NJ, USA). The cell cycle distributions were calculated using CellQuest software 5.1 (Becton Dickinson).

A549 [8] = experiment: Cell cycle analysis by DNA flow cytometry, A549; assay type: cell-based, human; conditions: A549, 24 h at IC50 concentration
Method: as §3

HCT-116 [9] = experiment: Annexin V-FITC/PI dual staining apoptosis assay, HCT-116; assay type: cell-based, human; conditions: for Fold increase in overall apoptosis compared to untreated control: HCT-116; for Early Apoptosis (Lower Right %) / Late Apoptosis (Upper Right %) / Total apoptosis: HCT-116, treated at IC50 concentration
Method: (§4) Phosphatidylserine externalization was evaluated using the Annexin V-FITC/PI apoptosis detection kit (BD Biosciences, USA), following the manufacturer’s guidelines. […] Subsequently, the cells were re-suspended in 100 μL of binding buffer with the addition of 1 μL of FITC-Annexin V, followed by a 30-min incubation at 4 °C. After rinsing in binding buffer, the cells were resuspended in 150 μL of binding buffer with the addition of 1 μL of DAPI (1 μg/μL in PBS). Flow cytometry analysis was performed using the BD FACS Canto II flow cytometer and the results were interpreted with FlowJo7.6.4 software (Tree Star, Ashland, USA).

A549 [10] = experiment: Annexin V-FITC/PI dual staining apoptosis assay, A549; assay type: cell-based, human; conditions: for Fold increase in overall apoptosis compared to untreated control: A549; for Early Apoptosis (Lower Right %) / Late Apoptosis (Upper Right %) / Total apoptosis: A549, treated at IC50 concentration
Method: as §4

[11] = compound 150 µM, rat liver homogenate, 37 °C; cited from earlier work
[12] = chemically induced hypoxia with CoCl2·6H2O, read-out: IC50 HCT-116 (Hypoxia)
[13] = normoxic conditions, read-out: IC50 HCT-116 (Normoxia)

SMILES: NS(=O)(=O)c1ccc(CCN(Cc2ccccc2)C(=O)c2ccc(-c3cssc3=S)cc2)cc1 [Compound 19]
- Ki (hCA I): 771 nM
- Ki (hCA II): 480 nM
- Ki (hCA IV): 4340 nM
- Ki (hCA IX [1]): 43 nM
- Ki (hCA XII [2]): 9.7 nM

SMILES: N#CCCN(CCc1ccc(S(N)(=O)=O)cc1)C(=O)c1ccc(-c2cssc2=S)cc1 [Compound 33]
- Ki (hCA I): 429 nM
- Ki (hCA II): 60.4 nM
- Ki (hCA IV): 523 nM
- Ki (hCA IX [1]): 28.7 nM
- Ki (hCA XII [2]): 9.1 nM

SMILES: NS(=O)(=O)c1ccc(CCN(CCc2ccccc2)C(=O)c2ccc(-c3cssc3=S)cc2)cc1 [Compound 32]
- Ki (hCA I): 4390 nM
- Ki (hCA II): 661 nM
- Ki (hCA IV): 243 nM
- Ki (hCA IX [1]): 126 nM
- Ki (hCA XII [2]): 9.6 nM

SMILES: NS(=O)(=O)c1ccc(CCN(Cc2ccc(F)cc2)C(=O)c2ccc(-c3cssc3=S)cc2)cc1 [Compound 20]
- Ki (hCA I): 5320 nM
- Ki (hCA II): 600 nM
- Ki (hCA IV): > 10000 nM
- Ki (hCA IX [1]): 46.3 nM
- Ki (hCA XII [2]): 65.3 nM

SMILES: CN(C)c1ccc(CN(CCc2ccc(S(N)(=O)=O)cc2)C(=O)c2ccc(-c3cssc3=S)cc2)cc1 [Compound 24]
- Ki (hCA I): 4260 nM
- Ki (hCA II): 995 nM
- Ki (hCA IV): 3410 nM
- Ki (hCA IX [1]): 22.7 nM
- Ki (hCA XII [2]): 9.5 nM

SMILES: CN[C@@H]1C[C@H]2O[C@@](C)([C@@H]1OC)n1c3ccccc3c3c4c(c5c6ccccc6n2c5c31)C(=O)NC4 [Staurosporine, reference compound]
- IC50 (A549 [3]): 5110 ± 190 nM

SMILES: NS(=O)(=O)c1ccc(CCN(Cc2ccc(Cl)cc2)C(=O)c2ccc(-c3cssc3=S)cc2)cc1 [Compound 21]
- Ki (hCA I): 5500 nM
- Ki (hCA II): 2970 nM
- Ki (hCA IV): 430 nM
- Ki (hCA IX [1]): 24 nM
- Ki (hCA XII [2]): 9.8 nM

SMILES: COc1ccc(CN(CCc2ccc(S(N)(=O)=O)cc2)C(=O)c2ccc(-c3cssc3=S)cc2)cc1 [Compound 27]
- Ki (hCA I): 2220 nM
- Ki (hCA II): 589 nM
- Ki (hCA IV): 1590 nM
- Ki (hCA IX [1]): 50.3 nM
- Ki (hCA XII [2]): 76.4 nM

SMILES: COc1cc([N+](=O)[O-])ccc1CN(CCc1ccc(S(N)(=O)=O)cc1)C(=O)c1ccc(-c2cssc2=S)cc1 [Compound 26]
- hCA II/hCA IX selectivity ratio (hCA IX [4]): 719
- hCA II/hCA XII selectivity ratio (hCA XII [5]): 383
- IC50 (MDA-MB-231): 10400 ± 610 nM
- IC50 Normoxia / IC50 Hypoxia (HCT-116 [6]): 0.6
- IC50 (HCT-116 [6]; [12]): 3730 ± 70 nM
- IC50 (HCT-116 [6]; [13]): 2300 ± 72 nM
- IC50 (A549 [3]): 7470 ± 310 nM
- %G0-G1 (HCT-116 [7]): 27.14%
- %G2/M (HCT-116 [7]): 30.29%
- %S (HCT-116 [7]): 24.13%
- %Sub-G1 (HCT-116 [7]): 18.44%
- %G0-G1 (A549 [8]): 29.49%
- %G2/M (A549 [8]): 33.05%
- %S (A549 [8]): 22.54%
- %Sub-G1 (A549 [8]): 14.92%
- Fold increase in overall apoptosis compared to untreated control (HCT-116 [9]): 24.5 fold
- Early Apoptosis (Lower Right %) (HCT-116 [9]): 4.13%
- Late Apoptosis (Upper Right %) (HCT-116 [9]): 14.96%
- Total apoptosis (HCT-116 [9]): 19.09%
- Fold increase in overall apoptosis compared to untreated control (A549 [10]): 13.1 fold
- Early Apoptosis (Lower Right %) (A549 [10]): 6.47%
- Late Apoptosis (Upper Right %) (A549 [10]): 9.3%
- Total apoptosis (A549 [10]): 15.77%
- Ki (hCA I): 6700 nM
- Ki (hCA II): 2950 nM
- Ki (hCA IV): 4090 nM
- Ki (hCA IX [1]): 4.1 nM
- Ki (hCA XII [2]): 7.7 nM
- H2S release half-life t/2 [11]: 4.9 min

SMILES: N#Cc1ccc(CN(CCc2ccc(S(N)(=O)=O)cc2)C(=O)c2ccc(-c3cssc3=S)cc2)cc1 [Compound 23]
- hCA II/hCA IX selectivity ratio (hCA IX [4]): 120
- hCA II/hCA XII selectivity ratio (hCA XII [5]): 548
- IC50 (MDA-MB-231): 1530 ± 40 nM
- IC50 Normoxia / IC50 Hypoxia (HCT-116 [6]): 0.3
- IC50 (HCT-116 [6]; [12]): 4270 ± 80 nM
- IC50 (HCT-116 [6]; [13]): 1240 ± 40 nM
- IC50 (A549 [3]): 4530 ± 120 nM
- %G0-G1 (HCT-116 [7]): 20.35%
- %G2/M (HCT-116 [7]): 32.2%
- %S (HCT-116 [7]): 23.29%
- %Sub-G1 (HCT-116 [7]): 24.16%
- %G0-G1 (A549 [8]): 29.65%
- %G2/M (A549 [8]): 28.09%
- %S (A549 [8]): 26.28%
- %Sub-G1 (A549 [8]): 15.98%
- Fold increase in overall apoptosis compared to untreated control (HCT-116 [9]): 37.2 fold
- Early Apoptosis (Lower Right %) (HCT-116 [9]): 7.69%
- Late Apoptosis (Upper Right %) (HCT-116 [9]): 21.33%
- Total apoptosis (HCT-116 [9]): 29.02%
- Fold increase in overall apoptosis compared to untreated control (A549 [10]): 14.2 fold
- Early Apoptosis (Lower Right %) (A549 [10]): 6.91%
- Late Apoptosis (Upper Right %) (A549 [10]): 10.13%
- Total apoptosis (A549 [10]): 17.04%
- Ki (hCA I): > 10000 nM
- Ki (hCA II): 4830 nM
- Ki (hCA IX [1]): 40.3 nM
- Ki (hCA XII [2]): 8.8 nM

SMILES: NS(=O)(=O)c1ccc(CCN(Cc2csc3ccccc23)C(=O)c2ccc(-c3cssc3=S)cc2)cc1 [Compound 31]
- Ki (hCA I): > 10000 nM
- Ki (hCA II): 2480 nM
- Ki (hCA IX [1]): 2.4 nM
- Ki (hCA XII [2]): 8 nM

SMILES: COc1ccc(CN(CCc2ccc(S(N)(=O)=O)cc2)C(=O)c2ccc(-c3cssc3=S)cc2)cc1OC [Compound 28]
- Ki (hCA I): 890 nM
- Ki (hCA II): 218 nM
- Ki (hCA IV): 293 nM
- Ki (hCA IX [1]): 18.6 nM
- Ki (hCA XII [2]): 8.9 nM

SMILES: NS(=O)(=O)c1ccc(CCN(Cc2ccc([N+](=O)[O-])cc2)C(=O)c2ccc(-c3cssc3=S)cc2)cc1 [Compound 25]
- Ki (hCA I): 7450 nM
- Ki (hCA II): 919 nM
- Ki (hCA IV): > 10000 nM
- Ki (hCA IX [1]): 36.6 nM
- Ki (hCA XII [2]): 32.9 nM
